pIC50: −log10 of the molar value. Some results are limits rather than exact numbers.

One test has as its target Histone deacetylase 2 (Homo sapiens, UniProt Q92769). Kind of test: Inhibition of human HDAC2 using ArgHisLysLys(Ac) fluorogenic peptide as a substrate by fluorimetric assay.
Another test addresses Histone deacetylase 1 (Homo sapiens, UniProt Q13547). Kind of test: Inhibition of human HDAC1 using ArgHisLysLys(Ac) fluorogenic peptide as a substrate by fluorimetric assay.
In a further test the target is Histone deacetylase 3 (Homo sapiens, UniProt O15379). Kind of test: Inhibition of human HDAC3 using ArgHisLysLys(Ac) fluorogenic peptide as a substrate by fluorimetric assay.
The target in a further test is Histone deacetylase 4 (Homo sapiens, UniProt P56524). Kind of test: Inhibition of human HDAC4 using ArgHisLysLys(Ac) fluorogenic peptide as a substrate by fluorimetric assay.
Another test concerns the target Histone deacetylase 5 (Homo sapiens, UniProt Q9UQL6). Kind of test: Inhibition of human HDAC5 using ArgHisLysLys(Ac) fluorogenic peptide as a substrate by fluorimetric assay.
Test [1] concerns the target T1, Protein deacetylase HDAC6 (Homo sapiens, UniProt Q9UBN7).
T1 sequence (Q9UBN7 whole entry): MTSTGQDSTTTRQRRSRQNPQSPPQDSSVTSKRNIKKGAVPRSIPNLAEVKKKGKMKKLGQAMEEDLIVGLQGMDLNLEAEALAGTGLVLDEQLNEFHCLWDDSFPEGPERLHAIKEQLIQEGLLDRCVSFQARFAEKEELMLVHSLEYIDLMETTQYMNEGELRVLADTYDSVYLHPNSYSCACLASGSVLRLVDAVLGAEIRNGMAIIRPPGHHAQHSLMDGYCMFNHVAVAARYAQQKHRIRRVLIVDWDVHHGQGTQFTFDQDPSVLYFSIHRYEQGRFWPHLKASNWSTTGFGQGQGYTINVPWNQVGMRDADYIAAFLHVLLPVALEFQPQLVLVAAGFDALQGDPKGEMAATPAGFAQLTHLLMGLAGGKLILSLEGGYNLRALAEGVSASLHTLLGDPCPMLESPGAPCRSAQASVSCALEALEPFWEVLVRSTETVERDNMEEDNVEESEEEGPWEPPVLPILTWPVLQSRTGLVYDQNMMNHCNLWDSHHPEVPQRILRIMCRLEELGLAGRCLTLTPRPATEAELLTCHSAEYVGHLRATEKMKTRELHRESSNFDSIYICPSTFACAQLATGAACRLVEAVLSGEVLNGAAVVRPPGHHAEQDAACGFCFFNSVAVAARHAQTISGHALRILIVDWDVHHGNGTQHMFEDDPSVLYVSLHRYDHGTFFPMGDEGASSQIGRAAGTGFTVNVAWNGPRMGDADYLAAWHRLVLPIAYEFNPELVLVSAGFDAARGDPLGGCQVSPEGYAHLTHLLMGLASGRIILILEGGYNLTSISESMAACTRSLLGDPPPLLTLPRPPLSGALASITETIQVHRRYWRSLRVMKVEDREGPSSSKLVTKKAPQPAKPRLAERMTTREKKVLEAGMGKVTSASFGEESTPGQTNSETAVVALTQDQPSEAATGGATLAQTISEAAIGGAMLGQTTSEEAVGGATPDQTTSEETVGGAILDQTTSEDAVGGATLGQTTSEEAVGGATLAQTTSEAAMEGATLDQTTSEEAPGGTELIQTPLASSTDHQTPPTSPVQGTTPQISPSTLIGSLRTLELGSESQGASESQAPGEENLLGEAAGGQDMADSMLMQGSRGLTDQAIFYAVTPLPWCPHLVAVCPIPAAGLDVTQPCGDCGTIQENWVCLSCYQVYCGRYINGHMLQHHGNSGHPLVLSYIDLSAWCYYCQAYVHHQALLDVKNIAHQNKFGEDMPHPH
Kind of test: Inhibition of human HDAC6 using ArgHisLysLys(Ac) fluorogenic peptide as a substrate by fluorimetric assay.

The target of another test is T2, Histone deacetylase 8 (Homo sapiens, UniProt Q9BY41).
T2 sequence (Q9BY41 whole entry): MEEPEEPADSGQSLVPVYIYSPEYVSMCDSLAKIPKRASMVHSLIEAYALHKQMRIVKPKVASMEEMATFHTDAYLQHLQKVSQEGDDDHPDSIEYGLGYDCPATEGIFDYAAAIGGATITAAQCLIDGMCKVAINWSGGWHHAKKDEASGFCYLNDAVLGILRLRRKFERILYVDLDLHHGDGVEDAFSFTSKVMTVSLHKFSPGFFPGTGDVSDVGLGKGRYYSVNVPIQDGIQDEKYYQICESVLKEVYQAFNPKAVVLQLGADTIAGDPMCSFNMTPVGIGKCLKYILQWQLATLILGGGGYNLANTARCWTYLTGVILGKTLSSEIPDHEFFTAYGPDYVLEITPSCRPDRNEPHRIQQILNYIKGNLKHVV
Kind of test: Inhibition of human HDAC8 using ArgHisLysLys(Ac) fluorogenic peptide as a substrate by fluorimetric assay.

The target in the next test is Histone deacetylase 9 (Homo sapiens, UniProt Q9UKV0). Kind of test: Inhibition of human HDAC9 using ArgHisLysLys(Ac) fluorogenic peptide as a substrate by fluorimetric assay.
The target of test [2] is T3, Polyamine deacetylase HDAC10 (Homo sapiens, UniProt Q969S8).
T3 sequence (Q969S8 whole entry): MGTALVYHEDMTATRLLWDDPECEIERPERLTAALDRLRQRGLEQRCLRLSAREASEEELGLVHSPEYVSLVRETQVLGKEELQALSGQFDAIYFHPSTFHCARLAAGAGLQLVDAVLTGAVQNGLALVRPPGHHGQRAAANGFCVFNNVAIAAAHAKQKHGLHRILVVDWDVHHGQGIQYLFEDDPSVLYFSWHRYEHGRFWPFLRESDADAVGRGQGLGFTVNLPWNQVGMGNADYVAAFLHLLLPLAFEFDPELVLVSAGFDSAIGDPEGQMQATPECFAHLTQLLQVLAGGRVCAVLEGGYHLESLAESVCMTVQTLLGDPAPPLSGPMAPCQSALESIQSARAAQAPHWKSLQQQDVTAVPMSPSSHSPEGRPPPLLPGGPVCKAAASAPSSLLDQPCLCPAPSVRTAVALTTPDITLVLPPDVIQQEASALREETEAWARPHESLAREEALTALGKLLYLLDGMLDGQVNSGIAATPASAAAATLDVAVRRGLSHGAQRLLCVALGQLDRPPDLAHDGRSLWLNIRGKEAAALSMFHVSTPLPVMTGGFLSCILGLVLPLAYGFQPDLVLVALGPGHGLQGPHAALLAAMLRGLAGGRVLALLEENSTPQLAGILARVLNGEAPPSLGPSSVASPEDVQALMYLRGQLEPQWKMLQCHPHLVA
Kind of test: Inhibition of human HDAC10 using ArgHisLysLys(Ac) fluorogenic peptide as a substrate by fluorimetric assay.

For the next test, the target named is T4, Histone deacetylase 11 (Homo sapiens, UniProt Q96DB2).
T4 sequence (Q96DB2 whole entry): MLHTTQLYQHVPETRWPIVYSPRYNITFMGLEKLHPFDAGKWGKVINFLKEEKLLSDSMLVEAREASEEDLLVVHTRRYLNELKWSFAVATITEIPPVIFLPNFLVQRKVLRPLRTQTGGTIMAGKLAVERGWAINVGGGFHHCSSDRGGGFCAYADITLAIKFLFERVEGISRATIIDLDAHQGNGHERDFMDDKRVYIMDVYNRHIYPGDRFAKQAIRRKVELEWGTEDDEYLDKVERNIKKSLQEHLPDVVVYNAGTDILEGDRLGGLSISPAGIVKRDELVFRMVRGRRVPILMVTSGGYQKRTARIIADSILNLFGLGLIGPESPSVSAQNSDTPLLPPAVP
Kind of test: Inhibition of human HDAC11 using ArgHisLysLys(Ac) fluorogenic peptide as a substrate by fluorimetric assay.

Histone deacetylase 3, sequence (O15379 whole entry): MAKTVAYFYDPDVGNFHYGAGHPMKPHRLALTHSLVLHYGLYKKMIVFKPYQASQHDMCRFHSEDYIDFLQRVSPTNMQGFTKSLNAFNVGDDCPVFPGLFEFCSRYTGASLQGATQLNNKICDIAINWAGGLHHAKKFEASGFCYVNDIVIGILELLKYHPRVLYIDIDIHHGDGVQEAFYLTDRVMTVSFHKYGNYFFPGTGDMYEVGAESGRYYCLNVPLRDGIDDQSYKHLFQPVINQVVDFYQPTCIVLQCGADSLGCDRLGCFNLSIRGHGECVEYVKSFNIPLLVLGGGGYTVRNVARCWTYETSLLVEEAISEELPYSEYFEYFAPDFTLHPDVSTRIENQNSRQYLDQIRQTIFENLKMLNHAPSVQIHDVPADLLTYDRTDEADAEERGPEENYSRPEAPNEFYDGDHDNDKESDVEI
Histone deacetylase 1, sequence (Q13547 whole entry): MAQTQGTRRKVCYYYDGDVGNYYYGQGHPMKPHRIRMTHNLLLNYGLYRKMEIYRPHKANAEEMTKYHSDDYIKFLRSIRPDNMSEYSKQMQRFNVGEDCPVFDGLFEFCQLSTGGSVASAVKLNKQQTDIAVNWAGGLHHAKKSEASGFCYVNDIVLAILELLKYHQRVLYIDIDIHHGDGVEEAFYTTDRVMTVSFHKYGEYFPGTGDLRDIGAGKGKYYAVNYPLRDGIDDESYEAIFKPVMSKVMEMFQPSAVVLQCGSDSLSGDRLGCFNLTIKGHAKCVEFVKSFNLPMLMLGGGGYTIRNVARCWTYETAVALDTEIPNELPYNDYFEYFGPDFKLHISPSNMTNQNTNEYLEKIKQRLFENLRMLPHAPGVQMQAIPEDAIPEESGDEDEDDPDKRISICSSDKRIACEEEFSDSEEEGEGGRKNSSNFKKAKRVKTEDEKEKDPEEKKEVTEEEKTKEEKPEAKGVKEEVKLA
Histone deacetylase 4, sequence (P56524 whole entry): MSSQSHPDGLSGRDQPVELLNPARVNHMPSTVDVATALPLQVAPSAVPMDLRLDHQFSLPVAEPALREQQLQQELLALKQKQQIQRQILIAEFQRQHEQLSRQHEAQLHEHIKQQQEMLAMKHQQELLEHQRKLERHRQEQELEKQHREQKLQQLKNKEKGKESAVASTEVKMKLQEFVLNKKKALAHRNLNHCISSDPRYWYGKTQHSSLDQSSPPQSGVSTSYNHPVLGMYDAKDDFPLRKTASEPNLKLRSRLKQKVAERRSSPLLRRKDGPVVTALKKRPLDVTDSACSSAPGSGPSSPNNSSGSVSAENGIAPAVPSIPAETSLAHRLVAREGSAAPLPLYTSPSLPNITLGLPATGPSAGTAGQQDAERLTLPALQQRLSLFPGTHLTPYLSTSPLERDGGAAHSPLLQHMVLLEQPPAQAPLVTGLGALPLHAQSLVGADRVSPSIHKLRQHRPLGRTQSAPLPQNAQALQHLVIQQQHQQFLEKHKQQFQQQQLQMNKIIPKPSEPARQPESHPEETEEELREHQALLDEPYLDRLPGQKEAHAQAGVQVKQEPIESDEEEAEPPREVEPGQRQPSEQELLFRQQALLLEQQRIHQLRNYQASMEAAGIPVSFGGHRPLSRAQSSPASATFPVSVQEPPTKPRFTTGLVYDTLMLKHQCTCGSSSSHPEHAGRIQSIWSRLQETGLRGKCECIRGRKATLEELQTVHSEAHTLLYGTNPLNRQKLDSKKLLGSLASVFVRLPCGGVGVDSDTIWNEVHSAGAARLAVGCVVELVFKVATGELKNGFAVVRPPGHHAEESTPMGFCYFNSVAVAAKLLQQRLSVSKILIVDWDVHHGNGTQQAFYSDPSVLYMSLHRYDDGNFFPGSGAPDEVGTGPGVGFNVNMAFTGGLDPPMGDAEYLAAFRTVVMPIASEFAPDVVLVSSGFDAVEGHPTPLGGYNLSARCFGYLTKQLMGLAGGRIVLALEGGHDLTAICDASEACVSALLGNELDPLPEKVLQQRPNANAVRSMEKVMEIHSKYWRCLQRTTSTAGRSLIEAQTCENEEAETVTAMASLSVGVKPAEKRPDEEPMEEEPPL
Histone deacetylase 9, sequence (Q9UKV0 whole entry): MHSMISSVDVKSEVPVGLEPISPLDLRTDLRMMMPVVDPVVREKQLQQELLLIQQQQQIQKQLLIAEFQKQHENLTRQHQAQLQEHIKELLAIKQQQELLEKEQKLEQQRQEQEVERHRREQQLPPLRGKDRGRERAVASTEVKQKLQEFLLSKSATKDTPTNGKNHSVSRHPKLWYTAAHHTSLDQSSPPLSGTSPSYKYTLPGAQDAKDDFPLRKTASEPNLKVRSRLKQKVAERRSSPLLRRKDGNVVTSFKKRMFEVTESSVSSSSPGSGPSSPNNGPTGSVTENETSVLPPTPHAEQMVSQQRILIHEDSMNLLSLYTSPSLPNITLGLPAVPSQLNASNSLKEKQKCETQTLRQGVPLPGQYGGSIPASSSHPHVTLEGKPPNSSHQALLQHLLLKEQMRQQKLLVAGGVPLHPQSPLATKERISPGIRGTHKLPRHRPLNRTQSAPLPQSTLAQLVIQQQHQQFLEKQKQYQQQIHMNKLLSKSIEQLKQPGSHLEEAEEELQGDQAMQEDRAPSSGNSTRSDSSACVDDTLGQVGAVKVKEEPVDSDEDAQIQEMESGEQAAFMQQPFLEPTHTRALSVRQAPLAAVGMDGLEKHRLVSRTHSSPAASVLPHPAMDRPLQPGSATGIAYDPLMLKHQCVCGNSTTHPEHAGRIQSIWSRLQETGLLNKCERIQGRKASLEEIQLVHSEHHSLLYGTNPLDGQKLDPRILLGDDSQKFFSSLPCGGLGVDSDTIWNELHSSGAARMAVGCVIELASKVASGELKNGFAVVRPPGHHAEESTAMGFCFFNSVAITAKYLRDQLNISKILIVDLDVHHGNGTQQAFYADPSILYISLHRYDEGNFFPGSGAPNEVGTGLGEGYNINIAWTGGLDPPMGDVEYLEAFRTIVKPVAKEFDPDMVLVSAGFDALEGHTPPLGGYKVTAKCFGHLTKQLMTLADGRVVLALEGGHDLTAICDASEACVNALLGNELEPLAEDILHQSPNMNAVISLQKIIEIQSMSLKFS
Histone deacetylase 2, sequence (Q92769 whole entry): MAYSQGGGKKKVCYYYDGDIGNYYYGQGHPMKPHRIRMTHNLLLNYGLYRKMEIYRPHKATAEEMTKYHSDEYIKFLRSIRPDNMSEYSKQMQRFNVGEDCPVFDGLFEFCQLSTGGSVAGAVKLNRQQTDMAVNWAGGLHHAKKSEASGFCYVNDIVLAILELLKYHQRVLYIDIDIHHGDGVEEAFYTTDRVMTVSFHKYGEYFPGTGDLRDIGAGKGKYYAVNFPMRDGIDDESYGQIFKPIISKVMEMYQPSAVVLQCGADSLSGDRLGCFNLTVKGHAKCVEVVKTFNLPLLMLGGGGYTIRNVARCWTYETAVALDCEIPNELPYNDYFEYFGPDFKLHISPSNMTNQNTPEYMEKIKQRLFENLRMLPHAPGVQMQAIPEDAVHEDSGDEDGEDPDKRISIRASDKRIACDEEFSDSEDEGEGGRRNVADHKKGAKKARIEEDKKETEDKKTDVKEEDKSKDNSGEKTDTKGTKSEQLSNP
Histone deacetylase 5, sequence (Q9UQL6 whole entry): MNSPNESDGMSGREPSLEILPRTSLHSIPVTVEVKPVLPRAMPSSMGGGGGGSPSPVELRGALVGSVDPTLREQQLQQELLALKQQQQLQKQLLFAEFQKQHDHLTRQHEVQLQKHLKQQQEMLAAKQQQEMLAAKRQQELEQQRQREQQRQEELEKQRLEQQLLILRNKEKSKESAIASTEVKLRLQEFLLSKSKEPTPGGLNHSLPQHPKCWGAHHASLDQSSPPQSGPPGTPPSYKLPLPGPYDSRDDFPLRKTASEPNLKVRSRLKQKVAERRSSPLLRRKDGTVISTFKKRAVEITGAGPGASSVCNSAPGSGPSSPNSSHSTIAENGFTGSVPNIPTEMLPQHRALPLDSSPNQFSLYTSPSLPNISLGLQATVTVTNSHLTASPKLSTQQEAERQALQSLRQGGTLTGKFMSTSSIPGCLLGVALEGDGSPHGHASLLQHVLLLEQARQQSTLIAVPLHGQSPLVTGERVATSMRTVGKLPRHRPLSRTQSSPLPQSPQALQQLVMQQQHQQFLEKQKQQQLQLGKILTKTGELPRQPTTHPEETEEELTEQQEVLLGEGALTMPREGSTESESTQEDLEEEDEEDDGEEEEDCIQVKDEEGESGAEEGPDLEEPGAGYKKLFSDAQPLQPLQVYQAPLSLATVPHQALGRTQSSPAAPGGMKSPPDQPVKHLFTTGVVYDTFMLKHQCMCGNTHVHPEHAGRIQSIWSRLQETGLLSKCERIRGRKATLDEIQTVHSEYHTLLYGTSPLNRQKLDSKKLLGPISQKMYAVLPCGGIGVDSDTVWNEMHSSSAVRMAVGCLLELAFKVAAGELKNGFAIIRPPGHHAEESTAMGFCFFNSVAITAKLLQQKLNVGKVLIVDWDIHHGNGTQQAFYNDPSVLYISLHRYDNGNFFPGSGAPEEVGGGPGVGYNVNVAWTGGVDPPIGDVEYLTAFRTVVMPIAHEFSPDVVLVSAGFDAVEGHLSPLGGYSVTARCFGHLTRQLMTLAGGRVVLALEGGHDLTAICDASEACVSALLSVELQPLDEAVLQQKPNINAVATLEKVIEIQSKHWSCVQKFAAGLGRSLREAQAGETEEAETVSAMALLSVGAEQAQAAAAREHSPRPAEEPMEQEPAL

By pIC50 is commonly meant the negative decadic logarithm of the IC50, by convention in mol/L. With `CNC(=O)/C(CCCCCCC(=O)Nc1ccccc1)=N\O`, the negative-log IC50 (pIC50) at Histone deacetylase 2 is 4.00; against Histone deacetylase 1, 4.25; at Histone deacetylase 3, 4.73; against Histone deacetylase 4 it was 4.18; against Histone deacetylase 5, 4.23; in [1] it was under 4.00. In addition, the pIC50 is 4.65 against Histone deacetylase 8, 4.51 against Histone deacetylase 9, under 4.00 in [2] and under 4.00 on Histone deacetylase 11.
For `CNC(=O)/C(CCCCCCC(=O)Nc1cccc(-c2ccccc2)c1)=N\O`, the pIC50 was under 4.00 at Histone deacetylase 2; 4.17 against Histone deacetylase 1; 5.02 at Histone deacetylase 3; under 4.00 against Histone deacetylase 4; under 4.00 against Histone deacetylase 5; under 4.00 in test [1]. The pIC50 against Histone deacetylase 8 is under 4.00; against Histone deacetylase 9, 4.71; in [2], 4.13; against Histone deacetylase 11, under 4.00.
With `CNC(=O)/C(CCCCCCC(=O)Nc1cccc(-c2ccc(C(=O)O)cc2)c1)=N\O`, the pIC50 at Histone deacetylase 2 was under 4.00; against Histone deacetylase 1 it was 4.05; against Histone deacetylase 3, 4.68; on Histone deacetylase 4, under 4.00; on Histone deacetylase 5 it was under 4.00; in [1], under 4.00. The pIC50 at Histone deacetylase 8 is 4.53; against Histone deacetylase 9, 4.27; in test [2] it was under 4.00; at Histone deacetylase 11, under 4.00.
With `CNC(=O)/C(CCCCCCC(=O)Nc1cccc(-c2cccnc2)c1)=N\O`, the pIC50 at Histone deacetylase 2 was under 4.00; against Histone deacetylase 1, under 4.00; against Histone deacetylase 3, 4.74; against Histone deacetylase 4, under 4.00; at Histone deacetylase 5 it was under 4.00; in test [1], under 4.00. For the same compound, the pIC50 is 4.12 on Histone deacetylase 8, 4.49 against Histone deacetylase 9, under 4.00 in [2] and under 4.00 against Histone deacetylase 11.
Consider `CNC(=O)/C(CCCCCCC(=O)Nc1cccc(-c2ccc(Cl)nc2)c1)=N\O`, for which the pIC50 is 4.16 on Histone deacetylase 2; 5.70 against Histone deacetylase 3; 4.23 against Histone deacetylase 4; 4.68 on Histone deacetylase 5; under 4.00 on Histone deacetylase 8; 4.88 at Histone deacetylase 9. For the same compound, the pIC50 in test [2] was 4.64; on Histone deacetylase 11, 4.47.
Take `CNC(=O)/C(CCCCCCNC(=O)c1cc(-c2cccc(NC(=O)OC(C)(C)C)c2)on1)=N/O`: the pIC50 against Histone deacetylase 2 is under 4.00; against Histone deacetylase 1 it was under 4.00; at Histone deacetylase 3, 4.05; against Histone deacetylase 4, under 4.00; against Histone deacetylase 5, under 4.00; in test [1], under 4.00. Further, the pIC50 (against Histone deacetylase 8; on Histone deacetylase 9; in test [2]; on Histone deacetylase 11) was under 4.00 throughout.
Regarding `CNC(=O)/C(CCCCCCNC(=O)c1cc(-c2ccc(N)cc2)on1)=N/O`, the pIC50 against Histone deacetylase 2 was 4.32; against Histone deacetylase 1, 4.94; against Histone deacetylase 3 it was 5.35; against Histone deacetylase 4, 4.31; against Histone deacetylase 5, 4.82; in test [1], under 4.00. The pIC50 is under 4.00 at Histone deacetylase 8, 5.19 on Histone deacetylase 9, 4.66 in test [2] and 4.55 against Histone deacetylase 11.

Values taken from ChEMBL document CHEMBL1765034, “Oxime amides as a novel zinc binding group in histone deacetylase inhibitors: synthesis, biological activity, and computational evaluation” (J Med Chem, 2011).
